# Measurements taken from US20240083861A1, “HSD17B13 INHIBITORS AND USES THEREOF” (FL2022-001, Inc., priority 2020, published 2024).
# Target: T1, Recombinant human HSD17B13 enzyme (Homo sapiens, UniProt Q7Z5P4)
# T1 sequence (Q7Z5P4 20-300): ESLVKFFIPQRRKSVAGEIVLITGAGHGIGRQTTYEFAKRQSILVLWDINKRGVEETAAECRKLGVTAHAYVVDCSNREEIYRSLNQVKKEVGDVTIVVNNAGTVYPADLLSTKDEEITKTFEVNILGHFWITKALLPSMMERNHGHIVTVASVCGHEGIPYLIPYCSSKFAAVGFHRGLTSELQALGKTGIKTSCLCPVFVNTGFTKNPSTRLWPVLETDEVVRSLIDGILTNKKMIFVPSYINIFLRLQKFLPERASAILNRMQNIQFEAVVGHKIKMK
# Assay: HSD17b13 NAD(P)H-Glo biochemical assay
# Conditions: for IC50: 50 uM estradiol, 1 mM NAD+, NAD(P)H-Glo luminescence, read-out: HSD17β13 IC50
# In short: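 Recombinant human HSD17B13 in 20 mM Tris pH7.4 with 0.002% Tween-20 and 0.02% BSA was preincubated with inhibitor for 20 minutes at RT. The reaction ran 3 hours at 37° C with 50 uM estradiol and 1 mM NAD+ (final). NADH formed was detected by NAD(P)H-Glo luminescence after 1 hour at RT.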
IC50,"inhibition at 30 µM (at 30 uM compound, read-out: HSD17β13 % inhibition at 30 uM)",Structure (SMILES)
< 100 nM,–,"Cn1nc(-c2cc(C(F)(F)F)c(F)c(O)c2F)c2cnc(N3CCOC(C)(c4ccccc4)C3)nc21 (stereo not shown) [Compound 18.119, 2,6-Difluoro-3-(1-methyl-6-(2-methyl-2-phenylmorpholino)-1H-pyrazolo[3,4-d]pyrimidin-3-y1)-5-(trifluoromethyl)phenol]"
< 100 nM,–,"Cn1nc(-c2cc(C(F)(F)F)c(F)c(O)c2F)c2cnc(N3CCN(C(=O)Nc4ccccc4)CC3)cc21 [Compound 21.01, 4-(3-(2,4-Difluoro-3-hydroxy-5-(trifluoromethyl)phenyl)-1-methyl-1H-pyrazolo[4,3-c]pyridin-6-y1)-N-phenylpiperazine-1-carboxamide]"
< 100 nM,–,"Cn1nc(-c2cc(C(F)(F)F)c(F)c(O)c2F)c2cnc(N3CCC(NS(C)(=O)=O)CC3)nc21 [Compound 18.23, N-(1-(3-(2,4-Difluoro-3-hydroxy-5-(trifluoromethyl)phenyl)-1-methyl-1H-pyrazolo[3,4-d]pyrimidin-6-yl)piperidin-4-yl)methanesulfonamide]"
< 100 nM,–,"Cn1nc(-c2cc(C(F)(F)F)c(F)c(O)c2F)c2cnc(N3CCOCC3CC(F)(F)F)nc21 (stereo not shown) [Compound 18.107, 2,6-Difluoro-3-(1-methyl-6-(3-(2,2,2-trifluoroethyl)morpholino)-1H-pyrazolo[3,4-d]pyrimidin-3-y1)-5-(trifluoromethyl)phenol]"
< 100 nM,–,"Cn1nc(-c2cc(C(F)(F)F)c(F)c(O)c2F)c2cnc(N3CCOC4(CCOCC4)C3)nc21 [Compound 18.95, 2,6-Difluoro-3-(1-methyl-6-(1,9-dioxa-4-azaspiro[5.5]undecan-4-y1)-1H-pyrazolo[3,4-d]pyrimidin-3-y1)-5-(trifluoromethyl)phenol]"
< 100 nM,–,"CN1CCN(c2ncc3c(-c4cc(C(F)(F)F)c(F)c(O)c4F)nn(C)c3n2)CC1c1ccccc1 (stereo not shown) [Compound 18.94, 2,6-Difluoro-3-(1-methyl-6-(4-methyl-3-phenylpiperazin-1-y1)-1H-pyrazolo[3,4-d]pyrimidin-3-yl)-5-(trifluoromethyl)phenol]"
100 to 1000 nM,–,"CN(C)CCC1CN(c2ncc3c(-c4cc(C(F)(F)F)c(F)c(O)c4F)nn(C)c3n2)CCO1 (stereo not shown) [Compound 18.39, 3-(6-(2-(2-(Dimethylamino)ethyl)morpholino)-1-methyl-1H-pyrazolo[3,4-d]pyrimidin-3-y1)-2,6-difluoro-5-(trifluoromethyl)phenol]"
< 100 nM,–,"Cn1cc(C2CN(c3ncc4c(-c5cc(C(F)(F)F)c(F)c(O)c5F)nn(C)c4n3)CCO2)cn1 (stereo not shown) [Compound 18.58, 2,6-Difluoro-3-(1-methyl-6-(2-(1-methyl-1H-pyrazol-4-yl)morpholino)-1H-pyrazolo[3,4-d]pyrimidin-3-y1)-5-(trifluoromethyl)phenol]"
100 to 1000 nM,–,"CN(C)C1CCN(c2ncc3c(-c4cc(C(F)(F)F)c(F)c(O)c4F)nn(C)c3n2)CC1 [Compound 18.31, 3-(6-(4-(Dimethylamino)piperidin-1-y1)-1-methyl-1H-pyrazolo[3,4-d]pyrimidin-3-y1)-2,6-difluoro-5-(trifluoromethyl)phenol]"
< 100 nM,–,"CC(=O)NC1CCN(c2ncc3c(-c4cc(C(F)(F)F)c(F)c(O)c4F)nn(C)c3n2)CC1 [Compound 18.22, N-(1-(3-(2,4-Difluoro-3-hydroxy-5-(trifluoromethyl)phenyl)-1-methyl-1H-pyrazolo[3,4-d]pyrimidin-6-y1)piperidin-4-yl)acetamide]"
< 100 nM,–,"C[C@@H]1CN(C(=O)c2ccccc2)CCN1c1ncc2c(-c3cc(C(F)(F)F)c(F)c(O)c3F)nn(C)c2n1 [Compound 18.120, (R)-(4-(3-(2,4-Difluoro-3-hydroxy-5-(trifluoromethyl)phenyl)-1-methyl-1H-pyrazolo[3,4-d]pyrimidin-6-yl)-3-methylpiperazin-1-y1)(phenyl)methanone]"
100 to 1000 nM,–,"Cn1nc(-c2cc(C(F)(F)F)c(F)c(O)c2F)c2cnc(N3CCN(C(=O)c4cccnc4)CC3)nc21 [Compound 18.128, (4-(3-(2,4-Difluoro-3-hydroxy-5-(trifluoromethyl)phenyl)-1-methyl-1H-pyrazolo[3,4-d]pyrimidin-6-yl)piperazin-1-yl)(pyridin-3-yl)methanone]"
–,< 20%,"O=C(NC12CC(C1)C2)c1ccc2oc(-c3c(F)cc(F)c(O)c3F)nc2c1 [Compound 23.01, N-(Bicyclo[1.1.1]pentan-1-y1)-2-(2,4,6-trifluoro-3-hydroxyphenyl)benzo[d]oxazole-5-carboxamide]"
< 100 nM,–,"Cn1nc(-c2cc(C(F)(F)F)c(F)c(O)c2F)c2cnc(N3CCOCC3C3CCOCC3)nc21 (stereo not shown) [Compound 18.42, 2,6-Difluoro-3-(1-methyl-6-(3-(tetrahydro-2H-pyran-4-yl)morpholino)-1H-pyrazolo[3,4-d]pyrimidin-3-y1)-5-(trifluoromethyl)phenol]"
< 100 nM,–,"Cn1nc(-c2cc(C(F)(F)F)c(F)c(O)c2F)c2cnc(N3CCC(O)(c4ccncc4)CC3)nc21 [Compound 18.97, 1-(3-(2,4-Difluoro-3-hydroxy-5-(trifluoromethyl)phenyl)-1-methyl-1H-pyrazolo[3,4-d]pyrimidin-6-yl)-4-(pyridin-4-yl)piperidin-4-ol]"
100 to 1000 nM,–,"Cn1nc(-c2cc(C(F)(F)F)c(F)c(O)c2F)c2cnc(N3CCN(C(=O)c4ccccn4)CC3)nc21 [Compound 18.121, (4-(3-(2,4-Difluoro-3-hydroxy-5-(trifluoromethyl)phenyl)-1-methyl-1H-pyrazolo[3,4-d]pyrimidin-6-yl)piperazin-1-yl)(pyridin-2-yl)methanone]"
< 100 nM,–,"Cn1nc(-c2cc(C(F)(F)F)c(F)c(O)c2F)c2cnc(N3CCOCC3C3CCCCC3)nc21 (stereo not shown) [Compound 18.130, 3-(6-(3-Cyclohexylmorpholino)-1-methyl-1H-pyrazolo[3,4-d]pyrimidin-3-y1)-2,6-difluoro-5-(trifluoromethyl)phenol]"

# Further lines, the molecule ahead of its results:
Structure (SMILES),IC50,"inhibition at 30 µM (at 30 uM compound, read-out: HSD17β13 % inhibition at 30 uM)"
"C[C@@H]1COCCN1c1cc2c(cn1)c(-c1cc(C(F)(F)F)c(F)c(O)c1F)nn2C [Compound 9.30, (R)-2,6-Difluoro-3-(1-methyl-6-(3-methylmorpholino)-1H-pyrazolo[4,3-c]pyridin-3-yl)-5-(trifluoromethyl)phenol]",< 100 nM,–
"CN(c1ncc2c(-c3cc(C(F)(F)F)c(F)c(O)c3F)nn(C)c2c1F)C1CCOCC1 [Compound 9.136, 2,6-Difluoro-3-(7-fluoro-1-methyl-6-(methyl(tetrahydro-2H-pyran-4-yl)amino)-1H-pyrazolo[4,3-c]pyridin-3-yl)-5-(trifluoromethyl)phenol]",< 100 nM,–
"Cn1nc(-c2cc(C(F)(F)F)c(F)c(O)c2F)c2cc(F)c(N3CCOCC34CCC4)nc21 [Compound 9.107, 2,6-Difluoro-3-(5-fluoro-1-methyl-6-(8-oxa-5-azaspiro[3.5]nonan-5-yl)-1H-pyrazolo[3,4-b]pyridin-3-yl)-5-(trifluoromethyl)phenol]",< 100 nM,–
"CCN(c1cc2c(cn1)c(-c1cc(C(F)(F)F)c(F)c(O)c1F)nn2C)C1CCC1 [Compound 9.46, 3-(6-(Cyclobutyl(ethyl)amino)-1-methyl-1H-pyrazolo[4,3-c]pyridin-3-yl)-2,6-difluoro-5-(trifluoromethyl)phenol]",< 100 nM,–
"CN1CCN(c2cc3c(cn2)c(-c2cc(C(F)(F)F)c(F)c(O)c2F)nn3C)C2(CCC2)C1 [Compound 9.96, 2,6-Difluoro-3-(1-methyl-6-(8-methyl-5,8-diazaspiro[3.5]nonan-5-yl)-1H-pyrazolo[4,3-c]pyridin-3-yl)-5-(trifluoromethyl)phenol]",< 100 nM,–
"Cn1nc(-c2cc(C(F)(F)F)c(F)c(O)c2F)c2cnc(N3CCN(S(C)(=O)=O)CC3)nc21 [Compound 12.01, 2,6-Difluoro-3-(1-methyl-6-(4-(methylsulfonyl)piperazin-1-yl)-1H-pyrazolo[3,4-d]pyrimidin-3-yl)-5-(trifluoromethyl)phenol]",< 100 nM,–
"CS(=O)(=O)N1CC=C(c2cc3[nH]nc(-c4cc(O)c(F)c(C(F)(F)F)c4)c3cn2)CC1 [Compound 14.03, 2-Fluoro-5-(6-(1-(methylsulfony1)-1,2,3,6-tetrahydropyridin-4-yl)-1H-pyrazolo[4,3-c]pyridin-3-yl)-3-(trifluoromethyl)phenol]",100 to 1000 nM,–
"CCN1CCN(c2cc3c(cn2)c(-c2cc(C(F)(F)F)c(F)c(O)c2F)nn3C)C(=O)C1 [Compound 9.113, 1-(3-(2,4-Difluoro-3-hydroxy-5-(trifluoromethyl)phenyl)-1-methyl-1H-pyrazolo[4,3-c]pyridin-6-yl)-4-ethylpiperazin-2-one]",100 to 1000 nM,–
"COC12CC(CN(c3cc4c(cn3)c(-c3cc(C(F)(F)F)c(F)c(O)c3F)nn4C)C1)C2 [Compound 9.93, 2,6-Difluoro-3-(6-(1-methoxy-3-azabicyclo[3.1.1]heptan-3-yl)-1-methyl-1H-pyrazolo[4,3-c]pyridin-3-yl)-5-(trifluoromethyl)phenol]",< 100 nM,–
"CN(c1cc2[nH]nc(-c3cc(C(F)(F)F)c(F)c(O)c3F)c2cn1)C1CCOCC1 [Compound 11.04, 2,6-Difluoro-3-(6-(methyl(tetrahydro-2H-pyran-4-yl)amino)-1H-pyrazolo[4,3-c]pyridin-3-yl)-5-(trifluoromethyl)phenol]",< 100 nM,–
"COC1CCN(c2cc3c(cn2)c(-c2cc(C(F)(F)F)c(F)c(O)c2F)nn3C)C2(CCC2)C1 (stereo not shown) [Compound 9.75, 2,6-Difluoro-3-(6-(8-methoxy-5-azaspiro[3.5]nonan-5-yl)-1-methyl-1H-pyrazolo[4,3-c]pyridin-3-yl)-5-(trifluoromethyl)phenol]",< 100 nM,–
